Measured values from patent US11319298B2 (Merck Sharp & Dohme Corp., priority 2016, dated 2022).
pEC50: −log10 of the molar value.

target: T1, human M4 muscarinic acetylcholine receptor (Homo sapiens, UniProt P08173); assay: human FLIPR-based M4 PAM assay, CHO-K1 cells stably transfected with human M4 receptor and chimeric G-protein Gαqi5; type: cell-based; details: inflection point (IP) of dose response curve; acetylcholine added at 20% of maximum response; CHO-K1 human M4/Gαqi5, FLIPR Tetra
T1 construct: expressed in transfected cells; host or cells: CHO-K1
T1 sequence (P08173 1-479): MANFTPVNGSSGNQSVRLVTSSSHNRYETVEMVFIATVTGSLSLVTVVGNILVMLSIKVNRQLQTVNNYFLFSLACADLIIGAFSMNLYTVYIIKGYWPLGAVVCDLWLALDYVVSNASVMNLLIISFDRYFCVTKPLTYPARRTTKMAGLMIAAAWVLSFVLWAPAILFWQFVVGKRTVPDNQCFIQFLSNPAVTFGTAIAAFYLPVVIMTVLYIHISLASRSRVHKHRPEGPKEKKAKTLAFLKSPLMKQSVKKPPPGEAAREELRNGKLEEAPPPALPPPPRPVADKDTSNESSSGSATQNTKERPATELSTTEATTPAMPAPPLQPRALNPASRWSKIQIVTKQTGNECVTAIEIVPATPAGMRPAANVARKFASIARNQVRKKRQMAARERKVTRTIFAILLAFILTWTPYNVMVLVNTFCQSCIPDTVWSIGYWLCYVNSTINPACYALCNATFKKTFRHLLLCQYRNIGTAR
Procedure, shortened: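 CHO-K1 cells were loaded with calcium dye at 37 °C for ~1 h. Fluorescence (ex 470–495/em 515–575 nm) was read for 4 min after test compound at increasing concentrations, then 3.5 min after acetylcholine at an EC20; sometimes a third addition at EC70 followed. The value is the inflection point of a 4-parameter logistic fit.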

| pEC50 | Structure (SMILES) |
| --- | --- |
| 5.90 | COc1ccc(OC2CCN(c3nnc(C(=O)NCc4ccc(OC)c(C(F)(F)F)c4)cc3C)CC2)cn1 [Example 186, 6-{4-[(6-methoxypyridin-3-yl)oxy]piperidin-1-yl}-N-[4-methoxy-3-(trifluoromethyl)benzyl]-5-methylpyridazine-3-carboxamide] |
| 6.66 | COc1ccc(OC2CCN(c3nnc(C(=O)NC4CCCc5ccccc54)cc3C)CC2)cn1 (stereo not drawn) [Example 200, 6-{4-[(6-methoxypyridin-3-yl)oxy]piperidin-1-yl}-5-methyl-N-(1,2,3,4-tetrahydronaphthalen-1-yl)pyridazine-3-carboxamide] |
| 7.13 | Cc1cc(C(=O)NCc2ccncc2)nnc1N1CCC(Oc2cnn(C)c2)CC1 [Example 22, 5-methyl-6-(4-((1-methyl-1H-pyrazol-4-yl)oxy)piperidin-1-yl)-N-(pyridin-4-ylmethyl)pyridazine-3-carboxamide] |
| 6.11 | COc1ccc(OC2CCN(c3nc(C(=O)NC4CCCc5cnccc54)nc(Cl)c3C)CC2)cn1 (stereo not drawn) [Example 214, 4-chloro-6-(4-((6-methoxypyridin-3-yl)oxy)piperidin-1-yl)-5-methyl-N-(5,6,7,8-tetrahydroisoquinolin-5-yl)pyrimidine-2-carboxamide] |
| 5.70 | COc1ccc(OC2CCN(c3nnc(C(=O)Nc4ccc(CC(F)(F)F)cc4)cc3C)CC2)cn1 [Example 190, 6-{4-[(6-methoxypyridin-3-yl)oxy]piperidin-1-yl}-5-methyl-N-[4-(2,2,2-trifluoroethyl)phenyl]pyridazine-3-carboxamide] |
| 7.66 | Cc1cc(C(=O)NCc2cnsc2)nnc1N1CCC(Oc2cccc(C#N)c2)CC1 [Example 192, 6-[4-(3-cyanophenoxy)piperidin-1-yl]-N-(isothiazol-4-ylmethyl)-5-methypyridazine-3-carboxamide] |
| 5.68 | COc1ccc(OC2CCN(c3ncnc(N4CC5(COC5)C4)c3C)CC2)cn1 [Example 233, 6-(6-(4-((6-methoxypyridin-3-yl)oxy)piperidin-1-yl)-5-methylpyrimidin-4-yl)-2-oxa-6-azaspiro[3.3]heptane] |
| 6.82 | COc1ccc(OC2CCN(c3nnc(C(=O)NCc4ccn(C)n4)cc3C)CC2)cn1 [Example 134, 6-{4-[(6-methoxypyridin-3-yl)oxy]piperidin-1-yl}-5-methyl-N-[(1-methyl-1H-pyrazol-3-yl)methyl]pyridazine-3-carboxamide] |
| 6.32 | Cc1ncc(C)c(N2CC[C@H](Oc3cccc(C#N)c3)[C@@H](F)C2)n1 [Example 83, 3-(((3S,4S)-1-(2,5-dimethylpyrimidin-4-yl)-3-fluoropiperidin-4-yl)oxy)benzonitrile] |
| 6.03 | COc1ccc(OC2CCN(c3ncncc3Br)CC2)cn1 [Example 95D, 5-bromo-4-(4-((6-methoxypyridin-3-yl)oxy)piperidin-1-yl)pyrimidine] |
| 7.00 | COc1ncc(OC2CCN(c3nc(CO)nc(Cl)c3C)CC2)cc1Cl [Example 65, (4-chloro-6-(4-((5-chloro-6-methoxypyridin-3-yl)oxy)piperidin-1-yl)-5-methylpyrimidin-2-yl)methanol] |
| 6.57 | Cc1cc(C(=O)NC2CCc3ccccc3C2)nnc1N1CCC(Oc2cccc(C#N)c2)CC1 (stereo not drawn) [Example 201, 6-[4-(3-cyanophenoxy)piperidin-1-yl]-5-methyl-N-(1,2,3,4-tetrahydronaphthalen-2-yl)pyridazine-3-carboxamide] |
| 6.97 | Cc1c(Cl)ncnc1N1CCC(Oc2ccc3nn(C)cc3c2)CC1 [Example 66, 5-((1-(6-chloro-5-methylpyrimidin-4-yl)piperidin-4-yl)oxy)-2-methyl-2H-indazole] |
| 7.21 | COc1ccc(OC2CCN(c3ncnc(Cl)c3C)CC2)cc1 [Example 57, 4-chloro-6-(4-(4-methoxyphenoxy)piperidin-1-yl)-5-methypyrimidine] |
| 7.38 | COc1ccc(OC2CCN(c3nc(CO)nc(C)c3C)CC2)cn1 [Example 241, (4-(4-((6-Methoxypyridin-3-yl)oxy)piperidin-1-yl)-5,6-dimethylpyrimidin-2-yl)methanol] |
